# Legend:
# 5-HT2A receptor [1] = molecular target: T1, 5-HT2A receptor (Homo sapiens (Human), UniProt P28223); format: cell-based; conditions: for 5-HT2A % Act @ Max Dose: Ca^2+ flux, HEK293
# Method in brief: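 Agonist-induced calcium flux was measured on FLIPR Tetra in stable HEK293 cells for 5-HT2A and 5-HT2B, and in stable CHO cells for 5-HT1A. Cells were loaded with Fluo-4 Direct dye and 2.5 mM probenecid for 50 min at 37 °C before compound addition and fluorescence reading.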
# human 5-HT2C receptor = human 5-HT2C receptor (Homo sapiens (Human), UniProt P28335); format: cell-based; conditions: Ca^2+ flux
# human 5-HT2C receptor, sequence (P28335 33-458 limits assumed): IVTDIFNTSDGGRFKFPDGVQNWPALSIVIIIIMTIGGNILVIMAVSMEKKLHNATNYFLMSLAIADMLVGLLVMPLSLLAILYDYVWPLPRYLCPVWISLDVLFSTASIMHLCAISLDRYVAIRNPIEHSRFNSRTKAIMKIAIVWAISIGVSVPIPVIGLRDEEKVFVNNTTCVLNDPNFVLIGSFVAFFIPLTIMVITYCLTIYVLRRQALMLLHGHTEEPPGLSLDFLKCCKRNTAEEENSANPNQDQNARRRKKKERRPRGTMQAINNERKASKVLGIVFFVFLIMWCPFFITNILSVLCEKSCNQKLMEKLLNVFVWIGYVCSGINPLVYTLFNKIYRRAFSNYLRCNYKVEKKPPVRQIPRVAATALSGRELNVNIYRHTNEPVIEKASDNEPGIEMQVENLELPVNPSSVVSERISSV
# 5-HT1A receptor = 5-HT1A receptor (Homo sapiens (Human), UniProt P08908); test: FLIPR Ca^2+ flux agonist assay at 5-HT1A; format: cell-based; conditions: CHO cells
# 5-HT2A receptor [2] = molecular target: T1, 5-HT2A receptor; format: cell-based; conditions: for 5-HT2A Arrestin % Act @ Max Dose / agonist type in the 5-HT2A arrestin recruitment assay, in words: beta-arrestin recruitment; for arrestin bias: potency in arrestin assay compared to Ca^2+ signaling assay: 5-HT2A arrestin vs G protein-dependent Ca^2+ assay
# Method in brief: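 PathHunter enzyme-fragment complementation in cells expressing ProLink-tagged 5-HT2A and β-arrestin–β-galactosidase fusion. Cells incubated at 37 °C before testing; recruitment read by chemiluminescence. Agonist activity expressed as % of maximal control ligand response after vehicle subtraction.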
# Alpha2A receptor = Alpha2A receptor (Homo sapiens (Human), UniProt P08913); test: FLIPR Ca^2+ flux agonist assay at Alpha2A; format: cell-based
# Alpha2A receptor, sequence (P08913 whole entry, looked up): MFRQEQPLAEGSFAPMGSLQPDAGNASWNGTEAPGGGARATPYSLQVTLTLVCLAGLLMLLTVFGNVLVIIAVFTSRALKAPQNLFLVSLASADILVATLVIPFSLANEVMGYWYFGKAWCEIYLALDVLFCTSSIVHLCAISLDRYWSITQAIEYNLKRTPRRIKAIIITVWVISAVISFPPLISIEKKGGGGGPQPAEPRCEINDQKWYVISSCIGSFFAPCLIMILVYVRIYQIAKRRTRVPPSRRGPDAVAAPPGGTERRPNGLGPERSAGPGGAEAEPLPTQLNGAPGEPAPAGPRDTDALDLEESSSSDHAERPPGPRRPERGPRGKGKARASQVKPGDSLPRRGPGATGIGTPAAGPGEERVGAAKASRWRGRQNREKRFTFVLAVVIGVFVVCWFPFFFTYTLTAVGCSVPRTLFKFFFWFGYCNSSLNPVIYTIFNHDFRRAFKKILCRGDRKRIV
# Procedure: (§1) Functional Assays at Adrenergic and Dopamine Receptors. Agonist activity at Alpha1A, Alpha2A, D1, and D2 receptors was determined using a FLIPR Ca^2+ flux assay at WuXi AppTec (Hong Kong) Limited according to their standard protocols. Briefly, stably transfected cells expressing the receptor of interest were grown and plated in a 384 well plate and incubated at 37° C. and 5% CO2 overnight. A solution of 250 mM probenecid in 1 mL FLIPR assay buffer was prepared fresh. This was combined with a fluorescent dye (Fluo-4 Direct™) to make a final assay concentration of 2.5 mM. […] The fluorescent dye was then added to the assay plate along with assay buffer to a final volume of 40 μL. The cell plate was incubated for 50 min at 37° C. and 5% CO2 and placed into the FLIPR Tetra along with the compound plate. 10 μL of references and compounds were then transferred from the compound plate into the cell plate and the fluorescent signal was read.
# D1 receptor = D1 receptor (Homo sapiens (Human), UniProt P21728); test: FLIPR Ca^2+ flux agonist assay at D1; format: cell-based
# D1 receptor, sequence (P21728 whole entry, looked up): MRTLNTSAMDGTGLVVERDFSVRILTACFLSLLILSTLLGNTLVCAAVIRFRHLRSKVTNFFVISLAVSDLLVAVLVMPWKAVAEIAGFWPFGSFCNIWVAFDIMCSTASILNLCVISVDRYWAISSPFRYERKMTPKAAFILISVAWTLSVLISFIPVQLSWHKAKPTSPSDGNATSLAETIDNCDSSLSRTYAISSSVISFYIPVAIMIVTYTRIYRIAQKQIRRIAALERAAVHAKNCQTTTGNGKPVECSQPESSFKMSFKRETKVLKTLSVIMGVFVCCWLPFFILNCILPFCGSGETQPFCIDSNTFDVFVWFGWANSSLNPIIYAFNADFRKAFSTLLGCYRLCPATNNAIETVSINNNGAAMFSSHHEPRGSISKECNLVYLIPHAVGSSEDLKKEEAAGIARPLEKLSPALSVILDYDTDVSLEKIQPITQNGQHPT
# Procedure: as §1
# D2 receptor = D2 receptor (Homo sapiens (Human), UniProt P14416); test: FLIPR Ca^2+ flux agonist assay at D2; format: cell-based
# D2 receptor, sequence (P14416 whole entry, looked up): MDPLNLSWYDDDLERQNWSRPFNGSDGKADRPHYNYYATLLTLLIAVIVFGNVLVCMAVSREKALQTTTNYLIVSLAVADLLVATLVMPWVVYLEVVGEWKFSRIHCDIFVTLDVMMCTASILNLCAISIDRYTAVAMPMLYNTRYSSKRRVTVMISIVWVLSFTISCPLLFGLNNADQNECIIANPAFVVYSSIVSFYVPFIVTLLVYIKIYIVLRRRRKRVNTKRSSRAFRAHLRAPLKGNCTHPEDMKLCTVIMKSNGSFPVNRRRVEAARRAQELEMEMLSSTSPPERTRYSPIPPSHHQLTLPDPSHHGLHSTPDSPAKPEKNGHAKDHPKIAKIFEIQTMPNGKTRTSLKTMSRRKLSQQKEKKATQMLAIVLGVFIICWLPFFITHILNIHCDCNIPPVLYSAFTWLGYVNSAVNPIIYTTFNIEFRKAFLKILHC
# Procedure: as §1
# C57BL/6 mice = test: Mouse head twitch response (HTR) assay; format: in vivo; conditions: SC; for head twitch response (HTR), in words: mice; for head twitch response (HTR), in words / # HTR at Most Efficacious Dose / Emax (95% CI): 20 min observation; for Most Efficacious Dose / # HTR at Most Efficacious Dose / Emax (95% CI): mouse HTR; for Emax (95% CI): curve fit
# Procedure: Agonists of the 5-HT2A receptor are well known to induce this effect in rodents and the potency of this HTR is correlated with hallucinogenic potency in humans.
# Animals. Adult male C57BL/6 mice, aged 6-8 weeks (body weight 20-25 g) were used in this experiment. Animals were housed under controlled temperatures and 12-hour light/dark cycles (lights on between 07:00-19:00 h), with ad libitum food and water. This study was carried out in strict accordance with the requirements of the Committee for the Purpose of Control and Supervision of Experiments on Animals (CPCSEA), India. All efforts were made to minimize suffering.
# Drugs and Drug Administration. Compound 1 was synthesized as described above. It was administered subcutaneously (SC) dissolved in saline vehicle at a volume of 10 mL/kg. Five doses were tested, with n=6 animals/group. Doses were calculated on the basis of the freebase.
# Procedure. Mice were administered one dose of the drug and immediately placed into a small open field for behavioral observation. Animals were observed continuously for 20 mins and the number of head twitches (HTs) were counted by an observer blind to the treatment condition.
# Statistical Analysis. The data points shown are the mean±standard error of the mean (SEM). Analysis was performed using GraphPad Prism 6. Curves were fit using a non-linear gaussian distribution to calculate ED50 and Emax values.
# Additional disclosed compounds were tested in the mouse head twitch response (HTR) assay according to the procedure described in Example 34. […] Lastly, compounds with much larger benzyl and phenethyl substituents on the amine nitrogen (e.g., 10 and 11) were low efficacy in this assay, consistent with their lower maximal efficacy in the arrestin functional assay (see Example 32).
# [3] = Metabolic stability in human liver microsomes (HLM); format: in vitro ADME; conditions: both sexes, human, pooled human liver microsomes, pH 7.4, NADPH
# Source text: HLM Stability. Pooled HLM from adult male and female donors (Corning 452117) were used.
# [4] = Metabolic stability in mouse liver microsomes (MLM); format: in vitro ADME; conditions: mouse, pooled mouse liver microsomes, pH 7.4, MLM (CD-1), NADPH
# Source text: MLM Stability Pooled MLM from CD-1 mice (BIOIVT M00501) were used.
smiles,measurement,setting,value
"CCCN1C[C@H](C(=O)N2[C@@H](C)C[C@@H]2C)C=C2c3cccc4[nH]cc(c34)C[C@H]21 [Compound 4, ((2S,4S)-2,4-dimethylazetidin-1-yl)((6aR,9R)-7-propyl-4,6,6a,7,8,9-hexahydroindolo[4,3-fg]quinolin-9-yl)methanone]",5-HT2A % Act @ Max Dose,5-HT2A receptor [1],97.6%
same,5-HT2C % Act @ Max Dose,human 5-HT2C receptor,110.845%
same,5-HT1A % Act @ Max Dose,5-HT1A receptor,123.1%
same,5-HT2A Arrestin % Act @ Max Dose,5-HT2A receptor [2],116.8%
same,"agonist type in the 5-HT2A arrestin recruitment assay, in words",5-HT2A receptor [2],full agonists
same,Alpha 2A % Act @ Max Dose,Alpha2A receptor,102.86%
same,D1 % Act @ Max Dose,D1 receptor,113.6%
same,D2 % Act @ Max Dose,D2 receptor,116.6%
same,"head twitch response (HTR), in words",C57BL/6 mice,less efficacious than its N-methyl counterpart compound Int11
same,Most Efficacious Dose,C57BL/6 mice,(0.1 mg/kg)
same,# HTR at Most Efficacious Dose,C57BL/6 mice,4.667
same,Emax (95% CI),C57BL/6 mice,4.034
same,half-life at 1 μM,[3],10.6 min
same,half-life at 1 μM,[4],0.8 min
"CCN(CC)C(=O)[C@@H]1C=C2c3cccc4[nH]cc(c34)C[C@H]2N(CCCF)C1 [Compound 2, (6aR,9R)-N,N-diethyl-7-(3-fluoropropyl)-4,6,6a,7,8,9-hexahydroindolo[4,3-fg]quinoline-9-carboxamide]",5-HT2A % Act @ Max Dose,5-HT2A receptor [1],97.75%
same,5-HT2C % Act @ Max Dose,human 5-HT2C receptor,105.48%
same,5-HT1A % Act @ Max Dose,5-HT1A receptor,92.42%
same,5-HT2A Arrestin % Act @ Max Dose,5-HT2A receptor [2],114.55%
same,"agonist type in the 5-HT2A arrestin recruitment assay, in words",5-HT2A receptor [2],full agonists
same,Alpha 2A % Act @ Max Dose,Alpha2A receptor,64.96%
same,D1 % Act @ Max Dose,D1 receptor,113.6%
same,D2 % Act @ Max Dose,D2 receptor,91.2%
same,Most Efficacious Dose,C57BL/6 mice,(0.32 mg/kg)
same,# HTR at Most Efficacious Dose,C57BL/6 mice,21.833
same,Emax (95% CI),C57BL/6 mice,20.47
same,half-life at 1 μM,[3],19.1 min
same,half-life at 1 μM,[4],2.67 min
"CCCN1C[C@H](C(=O)N[C@H](C)CC)C=C2c3cccc4[nH]cc(c34)C[C@H]21 [Compound 3, (6aR,9R)-N-((R)-sec-butyl)-7-propyl-4,6,6a,7,8,9-hexahydroindolo[4,3-fg]quinoline-9-carboxamide]",5-HT2A % Act @ Max Dose,5-HT2A receptor [1],102.64%
same,"selectivity for the 5-HT2A receptor over the tested adrenergic and dopamine receptors, in words","5-HT2A receptor [1]; vs Alpha1A, Alpha2A, D1, D2",exceptional selectivity
same,5-HT2C % Act @ Max Dose,human 5-HT2C receptor,119.49%
same,5-HT1A % Act @ Max Dose,5-HT1A receptor,107.6%
same,5-HT2A Arrestin % Act @ Max Dose,5-HT2A receptor [2],109.57%
same,"agonist type in the 5-HT2A arrestin recruitment assay, in words",5-HT2A receptor [2],full agonists
same,Alpha 2A % Act @ Max Dose,Alpha2A receptor,96.82%
same,D1 % Act @ Max Dose,D1 receptor,121.3%
same,D2 % Act @ Max Dose,D2 receptor,116.9%
same,Most Efficacious Dose,C57BL/6 mice,(0.32 mg/kg)
same,# HTR at Most Efficacious Dose,C57BL/6 mice,27.0
same,Emax (95% CI),C57BL/6 mice,25.56
same,half-life at 1 μM,[3],4.2 min
same,half-life at 1 μM,[4],1.6 min
"CCCN1C[C@H](C(=O)NC(CC)CC)C=C2c3cccc4[nH]cc(c34)C[C@H]21 [Compound 6, (6aR,9R)-N-(pentan-3-yl)-7-propyl-4,6,6a,7,8,9-hexahydroindolo[4,3-fg]quinoline-9-carboxamide]",5-HT2A % Act @ Max Dose,5-HT2A receptor [1],94.64%
same,5-HT2C % Act @ Max Dose,human 5-HT2C receptor,116.77%
same,5-HT1A % Act @ Max Dose,5-HT1A receptor,101.82%
same,5-HT2A Arrestin % Act @ Max Dose,5-HT2A receptor [2],102.75%
same,"agonist type in the 5-HT2A arrestin recruitment assay, in words",5-HT2A receptor [2],full agonists
same,D1 % Act @ Max Dose,D1 receptor,93.13%
same,D2 % Act @ Max Dose,D2 receptor,91.67%
same,Most Efficacious Dose,C57BL/6 mice,(1 mg/kg)
same,# HTR at Most Efficacious Dose,C57BL/6 mice,20.5
same,Emax (95% CI),C57BL/6 mice,23.06
same,half-life at 1 μM,[3],1.61 min
same,half-life at 1 μM,[4],0.6 min
"CCCN1C[C@H](C(=O)N(CC)CC)C=C2c3cccc4[nH]cc(c34)C[C@H]21 [Compound 1, (6aR,9R)-N,N-diethyl-7-propyl-4,6,6a,7,8,9-hexahydroindolo[4,3-fg]quinoline-9-carboxamide]",5-HT2A % Act @ Max Dose,5-HT2A receptor [1],96.96%
same,5-HT2C % Act @ Max Dose,human 5-HT2C receptor,106.79%
same,5-HT1A % Act @ Max Dose,5-HT1A receptor,95.6%
same,5-HT2A Arrestin % Act @ Max Dose,5-HT2A receptor [2],128.71%
same,"agonist type in the 5-HT2A arrestin recruitment assay, in words",5-HT2A receptor [2],full agonists
same,Alpha 2A % Act @ Max Dose,Alpha2A receptor,58.3%
same,D1 % Act @ Max Dose,D1 receptor,108.68%
same,D2 % Act @ Max Dose,D2 receptor,94.51%
same,"head twitch response (HTR), in words",C57BL/6 mice,induced a robust and dose-dependent HTR
same,Most Efficacious Dose,C57BL/6 mice,(1 mg/kg)
same,# HTR at Most Efficacious Dose,C57BL/6 mice,19.5
same,Emax (95% CI),C57BL/6 mice,21.63
same,half-life at 1 μM,[3],15.1 min
same,half-life at 1 μM,[4],2.3 min
"CCN(CC)C(=O)[C@@H]1C=C2c3cccc4[nH]cc(c34)C[C@H]2N(CCc2ccccc2OC)C1 [Compound 11, (6aR,9R)-N,N-diethyl-7-(2-methoxyphenethyl)-4,6,6a,7,8,9-hexahydroindolo[4,3-fg]quinoline-9-carboxamide]",5-HT2A % Act @ Max Dose,5-HT2A receptor [1],63.46%
same,5-HT2C % Act @ Max Dose,human 5-HT2C receptor,107.89%
same,5-HT1A % Act @ Max Dose,5-HT1A receptor,57.91%
same,arrestin bias: potency in arrestin assay compared to Ca^2+ signaling assay,5-HT2A receptor [2],> 50 fold
same,5-HT2A Arrestin % Act @ Max Dose,5-HT2A receptor [2],54.255%
same,"agonist type in the 5-HT2A arrestin recruitment assay, in words",5-HT2A receptor [2],partial agonists
same,Alpha 2A % Act @ Max Dose,Alpha2A receptor,14.18%
same,"agonist efficacy at Alpha2A, in words",Alpha2A receptor,very low efficacy agonists
same,D1 % Act @ Max Dose,D1 receptor,90.9%
same,D2 % Act @ Max Dose,D2 receptor,98.49%
same,"head twitch response (HTR), in words",C57BL/6 mice,low efficacy
same,Most Efficacious Dose,C57BL/6 mice,(3.2 mg/kg)
same,# HTR at Most Efficacious Dose,C57BL/6 mice,12.0
same,Emax (95% CI),C57BL/6 mice,19.79
same,half-life at 1 μM,[3],2.37 min
same,half-life at 1 μM,[4],0.917 min
"CCN(CC)C(=O)[C@@H]1C=C2c3cccc4[nH]cc(c34)C[C@H]2N(Cc2ccccc2OC)C1 [Compound 10, (6aR,9R)-N,N-diethyl-7-(2-methoxybenzyl)-4,6,6a,7,8,9-hexahydroindolo[4,3-fg]quinoline-9-carboxamide]",5-HT2A % Act @ Max Dose,5-HT2A receptor [1],49.44%
same,5-HT2C % Act @ Max Dose,human 5-HT2C receptor,13.417%
same,5-HT1A % Act @ Max Dose,5-HT1A receptor,52.96%
same,arrestin bias: potency in arrestin assay compared to Ca^2+ signaling assay,5-HT2A receptor [2],> 50 fold
same,5-HT2A Arrestin % Act @ Max Dose,5-HT2A receptor [2],47.06%
same,"agonist type in the 5-HT2A arrestin recruitment assay, in words",5-HT2A receptor [2],partial agonists
same,Alpha 2A % Act @ Max Dose,Alpha2A receptor,36.52%
same,"agonist efficacy at Alpha2A, in words",Alpha2A receptor,very low efficacy agonists
same,D1 % Act @ Max Dose,D1 receptor,114.19%
same,D2 % Act @ Max Dose,D2 receptor,86.87%
same,"head twitch response (HTR), in words",C57BL/6 mice,low efficacy
same,Most Efficacious Dose,C57BL/6 mice,(3.2 mg/kg)
same,# HTR at Most Efficacious Dose,C57BL/6 mice,6.5
same,Emax (95% CI),C57BL/6 mice,7.749
same,half-life at 1 μM,[3],7.3 min
same,half-life at 1 μM,[4],1 min
